Laboratory results taken from patent US8623832B2, “Peptide compositions that bind TLR-4” (The Board of Regents of the University of Oklahoma, priority 2011, dated 2014).
“Also recorded” adds a separate entry of the source. Where no end group is shown, it is not given here.

Columns and labels:
[1] = Binding to LPS by Limulus Amoebocyte Lysate (LAL) assay; design: species or system Escherichia coli; conditions: 0-20 μM peptide; 0.01 ng/ml LPS; read at 6 and 12 minutes
Description: Binding of SPA4 peptide to LPS: The binding of SPA4 peptide to LPS was studied by LAL assay as per the method described by Giacometti et al. (2004). Briefly, 0-20 μM SPA4 peptide or polymyxin B (positive control) solutions were added to 0.01 ng/ml Escherichia coli O111:B4 LPS (supplied with the kit, Charles River Laboratories International, Inc., Wilmington, Mass.) in the wells of a 96 well plate and incubated at 37° C. for 40 minutes. Fifty μl of LAL substrate solution was then added to each well, and the plate was incubated for another 10 minutes. Finally, substrate-buffer solution was added, and optical density readings (OD) were obtained at 405 nm after 0, 6 and 12 minutes of addition of substrate. AOD values for SPA4 peptide or polymyxin B incubated with LPS (ΔODtreatment), LPS alone (ΔODLPS) and blank (ΔODBlank) were calculated by subtracting the OD values obtained at 6 or 12 minutes from those obtained at 0 minutes. Percent binding of SPA4 peptide and polymyxin B was calculated at 6 and 12 minutes of reaction using following formula: […]

[2] = tested on: TLR4; assay: TLR4 expression in JAWS II dendritic cells by immunocytochemistry / confocal microscopy; type: cell-based, mouse
Description: TLR4 expression by immunocytochemistry: The JAWS II-DCs were seeded at a density of 25,000 cells per well of an 8-well chamber slide (Nalge Nunc international, New York, USA). Post-LPS (100 ng/ml) treatment with SPA4 peptide (1 and 10 μM; SEQ ID NO:3) followed, and the cells were fixed for 20 minutes with 3.5% paraformaldehyde prepared in PBS on ice. Permeablization was carried out for 20 minutes on ice with Alpha-MEM medium containing 10% FBS and 0.05% saponin and 10 mM HEPES (Inaba et al., 1998). The cells were washed with PBS supplemented with 1% FBS and 0.05% saponin (wash buffer). Non-specific binding sites were blocked using PBS containing 10% normal mouse serum (Sigma, St Louis, Mo.) for 1 hour at room temperature in a humidified chamber. A rabbit polyclonal antibody to mouse TLR4 (Abcam, Cambridge, Mass.) was added to the cells at a dilution of 1:50 and incubated overnight at 4° C. in a humidified chamber. […]
SPA4 peptide (SEQ ID NO:3) inhibits the LPS-induced TLR4 expression in dendritic cells and SW480 intestinal (colonic) epithelial cells. […] First, it was determined if the SPA4 peptide inhibits LPS-induced expression of TLR4 in these cells. […]

[3] = tested on: IL-1β and IL-6; assay: Expression of IL-1β and IL-6 in SW480 cell lysates by immunoblotting; type: cell-based, human
Description: Expression of IL-1β and IL-6: Two treatment models (post- and pre-LPS treatment) were utilized for assessing the effects of SPA4 peptide on LPS-induced cytokines: IL-1β and IL-6. Post-LPS treatment models (short-term and long-term) are described above. In pre-LPS treatment model, the SW480 cells were pretreated with SPA4 peptide (10 μM) for 2 hours, followed by LPS-challenge (1.0 μg/ml) for another 4 hours. The cell-lysates were prepared either in commercially available cell-culture lysis reagent (Promega, WI) or directly into SDS-PAGE sample buffer containing 50 mM dithiothreitol (Cell Signalling Technology, MA). Ten μg of cell-lysate proteins were separated on 4-20% Novex Tris-glycine gradient SDS-PAGE gel (Invitrogen, CA) or 10% separating-5% stacking acrylamide gel. The expression levels of cytokines were measured by immunoblotting as described above using 1:1000 diluted antibodies against IL-1β and IL-6. Both antibodies were purchased from Santacruz Biotech, CA.

[4] = tested on: JAWS II dendritic cells; assay: LPS-induced TNF-α release by JAWS II dendritic cells (ELISA); type: cell-based, mouse; conditions: for LPS-induced TNF-α, mean values: post-LPS model
Description: JAWS II dendritic cell culture: The JAWS II dendritic cell line is an immortalized cell line derived from bone marrow of C57BL/6 mice (ATCC, Manassas, Va.). The cells were maintained in Alpha-modified minimum essential medium (Sigma, St Louis, Mo.) supplemented with 20% fetal bovine serum (FBS), 4 mM L-glutamine, 100 U/ml penicillin, 100 μg/ml streptomycin, 50 μg/ml gentamicin (Invitrogen, Grand Island, N.Y.) and 5 ng/ml of recombinant murine granulocyte macrophage-colony stimulating factor (Peprotech, Rocky Hill, N.J.). (Awasthi et al., 2005). The culture medium was replaced with fresh medium every 48 h.
The JAWS II dendritic cells (1 million) were treated with SP-A peptides (1 or 10 μM) with or without E. coli derived LPS (75 ng/ml, highly purified, low protein, Calbiochem, CA). In order to observe the anti-inflammatory properties of the SP-A peptides, the cells were treated with peptides for 1 hour prior to addition of LPS (pre-LPS treatment) or after 4 hours incubation with LPS (Post-LPS treatment). The incubation was continued for a total period of 5 hours. Control cells were treated with vehicle, LPS (75 ng/ml), and/or SP-A peptides (1 and 10 μM) for a period of 5 hours. The cell-free supernatants were collected and stored at −80° C. for further analysis.
Cytokine (TNF-α) measurement: The TNF-α levels were measured in cell-free supernatants of JAWS II dendritic cells treated with LPS with or without SP-A peptides by enzyme linked immunosorbent assay (ELISA) as described earlier (Awasthi and Cox, 2003).

[5] = tested on: dendritic (JAWS II) and intestinal epithelial cells (SW480); assay: Cell viability during the 5 hour TLR4 expression experiment; type: cell-based; conditions: within the 5 hours of the experiment
Description: SPA4 peptide (SEQ ID NO:3) inhibits the LPS-induced TLR4 expression in dendritic cells and SW480 intestinal (colonic) epithelial cells. […] Both of these cells constitutively express the TLR4 gene; the protein expression is low in dendritic cells under basal conditions. […] First, it was determined if the SPA4 peptide inhibits LPS-induced expression of TLR4 in these cells. […] After a total of 5 hours, TLR4 expression was studied by confocal microscopy.

GDFRYSDGTPVNYTNWYRGE [SPA4, GDFRYSDGT PVNYTNWYRGE]
binding to LPS [1]: does not bind to LPS
basal TLR4 expression [2]: reduced the basal TLR4 expression
LPS-induced TLR4 expression ([2]; post-LPS treatment, p<0.05): suppressed significantly; also recorded: reduced LPS-induced TLR4 expression to a basal level
expression of IL-6 precursors or active form, short-term treatment model [3]: not significantly affected
expression of low molecular weight precursors and active IL-1β, post-LPS treatment models ([3]; 5 hours and 9 hours, dose-dependent): significantly decreased
IL-6 expression, prolonged treatment ([3]; 6 hours or 9 hours in pre- and post-LPS-treatment models): significantly inhibited
expression of IL-1β precursor and active forms, pre-LPS treatment model ([3]; SPA4 10 μM 2 hours then LPS 1.0 μg/ml 4 hours): significant decrease
expression of IL-1β precursor form 1 ([3]; compared with LPS-treated cells): increased or unchanged
secretion of TNF-α, post-LPS model ([4]; peptide added after 4 hours LPS 75 ng/ml, both 1 and 10 μM): inhibited the secretion of TNF-α
LPS-induced TNF-α, mean values ([4]; 1 μM peptide): 6448 pg/mL
LPS-induced TNF-α, mean values ([4]; 10 μM peptide): 6101 pg/mL
viability of cells [5]: does not affect the viability of cells
